Experimental data from US10780090B2, “Heteroaryl compounds useful as inhibitors of SUMO activating enzyme” (Millennium Pharmaceuticals, Inc., priority 2014, dated 2020).

Biological target: recombinant human SAE enzyme (Homo sapiens (Human), UniProt Q9UBT2)
Test: SAE HTRF enzyme assay
Assay type: biochemical
Conditions: for inhibition at 0.111 µM: Concentration 0.111 μM, read-out: Percent Inhibition; for IC50: class symbols A/B/C
Outline: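 This HTRF format monitors Sumo-Flag–Ubc9-GST thioester formation catalysed by 0.11 nM human SAE with 0.5 μM ATP over 105 min at 24° C. Inhibition is expressed at a single concentration or as IC50.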

Sequence of recombinant human SAE enzyme (Q9UBT2 whole entry): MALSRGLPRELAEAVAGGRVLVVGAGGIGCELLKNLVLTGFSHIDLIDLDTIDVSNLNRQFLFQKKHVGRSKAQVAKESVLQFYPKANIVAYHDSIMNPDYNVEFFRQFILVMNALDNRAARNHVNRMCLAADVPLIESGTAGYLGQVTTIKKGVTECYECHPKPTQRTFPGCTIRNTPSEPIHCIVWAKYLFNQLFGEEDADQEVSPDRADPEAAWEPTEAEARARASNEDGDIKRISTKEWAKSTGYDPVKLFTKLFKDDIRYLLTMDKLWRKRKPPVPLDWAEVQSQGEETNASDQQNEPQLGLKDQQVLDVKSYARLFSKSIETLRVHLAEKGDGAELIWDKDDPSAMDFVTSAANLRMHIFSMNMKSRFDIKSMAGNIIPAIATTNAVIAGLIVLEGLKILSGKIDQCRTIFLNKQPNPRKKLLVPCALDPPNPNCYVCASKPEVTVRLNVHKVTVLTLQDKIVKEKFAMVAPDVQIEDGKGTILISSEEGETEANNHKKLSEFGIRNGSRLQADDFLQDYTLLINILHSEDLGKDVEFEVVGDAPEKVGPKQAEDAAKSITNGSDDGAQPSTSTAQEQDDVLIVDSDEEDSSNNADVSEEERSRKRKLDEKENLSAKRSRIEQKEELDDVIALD
Sequence of recombinant human SAE enzyme (Q9UBE0 whole entry partner): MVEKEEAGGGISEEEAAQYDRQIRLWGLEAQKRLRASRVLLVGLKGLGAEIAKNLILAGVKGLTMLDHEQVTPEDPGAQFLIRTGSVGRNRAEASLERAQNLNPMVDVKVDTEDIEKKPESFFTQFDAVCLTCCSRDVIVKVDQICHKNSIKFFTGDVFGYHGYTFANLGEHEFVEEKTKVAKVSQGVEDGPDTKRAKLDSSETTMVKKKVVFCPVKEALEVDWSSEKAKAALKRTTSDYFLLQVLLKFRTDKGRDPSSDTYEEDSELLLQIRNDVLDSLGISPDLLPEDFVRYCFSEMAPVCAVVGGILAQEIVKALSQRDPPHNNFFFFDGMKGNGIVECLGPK

Structure (SMILES)	inhibition at 0.111 µM [%]	IC50 [µM]
NS(=O)(=O)OC[C@H]1C[C@@H](Nc2ncncc2C(=O)c2cc(COc3ccccc3Br)cs2)C[C@@H]1O [I-98, [(1R,2S,4R)-4-{[5-({4-[(2-bromophenoxy)methyl]-2-thienyl}carbonyl)pyrimidin-4-yl]amino}-2-hydroxycyclopentyl]methyl sulfamate]	97	< 0.01
NS(=O)(=O)OC[C@H]1C[C@@H](Nc2ncncc2C(=O)c2cc(Cc3cccc(I)c3)cs2)[C@@H](F)[C@@H]1O [I-99, {(1R,2R,3R,4R)-3-fluoro-2-hydroxy-4-[(5-{[4-(3-iodobenzyl)-2-thienyl]carbonyl}pyrimidin-4-yl)amino]cyclopentyl}methyl sulfamate]	97	< 0.01
C=C(c1cccc(Cl)c1)c1cc(C(=O)c2cncnc2N[C@@H]2C[C@H](COS(N)(=O)=O)[C@@H](O)C2)sc1C [I-100, [(1R,2S,4R)-4-{[5-({4-[1-(3-Chlorophenyl)vinyl]-5-methyl-2-thienyl}carbonyl)pyrimidin-4-yl]amino}-2-hydroxycyclopentyl]methyl sulfamate]	97	< 0.01
NS(=O)(=O)OC[C@H]1C[C@@H](Nc2ncncc2C(=O)c2cc(Cc3cccc(Br)c3)cs2)[C@@H](F)[C@@H]1O [I-101, {(1R,2R,3R,4R)-4-[(5-{[4-(3-bromobenzyl)-2-thienyl]carbonyl}pyrimidin-4-yl)amino]-3-fluoro-2-hydroxycyclopentyl}methyl sulfamate]	96	< 0.01
NS(=O)(=O)OC[C@H]1C[C@@H](Nc2ncncc2C(=O)c2cc(Cc3ccc(Cl)c(Cl)c3)cs2)C[C@@H]1O [I-104, {(1R,2S,4R)-4-[(5-{[4-(3,4-Dichlorobenzyl)-2-thienyl]carbonyl}pyrimidin-4-yl)amino]-2-hydroxycyclopentyl)methyl sulfamate]	97	< 0.01
Cc1cn(Cc2csc(C(=O)c3cncnc3N[C@@H]3C[C@H](COS(N)(=O)=O)[C@@H](O)C3)c2)c2ccccc12 [I-105, [(1R,2S,4R)-2-Hydroxy-4-{[5-({4-[(3-methyl-1H-indol-1-yl)methyl]-2-thienyl}carbonyl)pyrimidin-4-yl]amino}cyclopentyl]methyl sulfamate]	96	< 0.01
NS(=O)(=O)OC[C@H]1C[C@@H](Nc2ncncc2C(=O)c2cc(Cc3cccc(Cl)c3)c(Cl)s2)C[C@@H]1O [I-107, {(1R,2S,4R)-4-[(5-{[5-chloro-4-(3-chlorobenzyl)-2-thienyl]carbonyl}pyrimidin-4-yl)amino]-2-hydroxycyclopentyl}methyl sulfamate]	96	< 0.01
NS(=O)(=O)OC[C@H]1C[C@@H](Nc2ncncc2C(=O)c2cc(CCc3ccccc3)cs2)C[C@@H]1O [I-108, {(1R,2S,4R)-2-Hydroxy-4-[(5-{[4-(2-phenylethyl)-2-thenyl]carbonyl}pyrimidin-4-yl)amino]cyclopentyl}methyl sulfamate]	96	–
Cc1sc(C(=O)c2cncnc2N[C@@H]2C[C@H](COS(N)(=O)=O)[C@@H](O)C2)cc1Cn1cccn1 [I-109, {(1R,2S,4R)-2-Hydroxy-4-[(5-{[5-methyl-4-(1H-pyrazol-1-ylmethyl)-2-thienyl]carbonyl}pyrimidin-4-yl)amino]cyclopentyl)methyl sulfamate]	96	< 0.01
NS(=O)(=O)OC[C@H]1C[C@@H](Nc2ncncc2C(=O)c2cc(Cc3cccc(Cl)c3)c(CC3CCOCC3)s2)C[C@@H]1O [I-110, {(1R,2S,4R)-4-[(5-{[4-(3-chlorobenzyl)-5-(tetrahydro-2H-pyran-4-ylmethyl)-2-thienyl]carbonyl}pyrimidin-4-yl)amino]-2-hydroxycyclopentyl}methyl sulfamate]	98	< 0.01
CCc1cccc(Cc2cc(C(=O)c3cncnc3N[C@@H]3C[C@H](COS(N)(=O)=O)[C@@H](O)C3)sc2C)c1 [I-111, {(1R,2S,4R)-4-[(5-{[4-(3-ethylbenzyl)-5-methyl-2-thienyl]carbonyl}pyrimidin-4-yl)amino]-2-hydroxycyclopentyl}methyl sulfamate]	98	< 0.01
NS(=O)(=O)OC[C@H]1C[C@@H](Nc2ncncc2C(=O)c2cc(Cc3cccc(Br)c3)c(Cl)s2)C[C@@H]1O [I-112, {(1R,2S,4R)-4-[(5-{[4-(3-bromobenzyl)-5-chloro-2-thienyl]carbonyl}pyrimidin-4-yl)amino]-2-hydroxycyclopentyl}methyl sulfamate]	97	–
NS(=O)(=O)OC[C@H]1C[C@@H](Nc2ncncc2C(=O)c2cc(Cc3cccc(OC(F)F)c3)cs2)C[C@@H]1O [I-113, [(1R,2S,4R)-4-{[5-({4-[3-(difluoromethoxy)benzyl]-2-thienyl}carbonyl)pyrimidin-4-yl]amino}-2-hydroxycyclopentyl]methyl sulfamate]	97	< 0.01
NS(=O)(=O)OC[C@H]1C[C@@H](Nc2ncncc2C(=O)c2cc(Cn3ccc4ccccc43)cs2)C[C@@H]1O [I-114, {(1R,2S,4R)-2-hydroxy-4-[(5-{[4-(1H-indol-1-ylmethyl)-2-thienyl]carbonyl}pyrimidin-4-yl)amino]cyclopentyl}methyl sulfamate]	97	< 0.01
NS(=O)(=O)OC[C@H]1C[C@@H](Nc2ncncc2C(=O)c2ccc(Cc3ccccc3)s2)[C@H](O)[C@@H]1O [I-115, [(1R,2R,3S,4R)-4-({5-[(5-benzyl-2-thienyl)carbonyl]pyrimidin-4-yl}amino)-2,3-dihydroxycyclopentyl]methyl sulfamate]	90	–
NS(=O)(=O)OC[C@H]1C[C@@H](Nc2ncncc2C(=O)c2cc(Cc3cccc(Cl)c3)c(Br)s2)C[C@@H]1O [I-118, {(1R,2S,4R)-4-[(5-{[5-bromo-4-(3-chlorobenzyl)-2-thienyl]carbonyl}pyrimidin-4-yl)amino]-2-hydroxycyclopentyl}methyl sulfamate]	97	< 0.01
NS(=O)(=O)OC[C@H]1C[C@@H](Nc2ncncc2C(=O)c2cc(Cc3ccc(C(F)(F)F)o3)cs2)C[C@@H]1O [I-119, [(1R,2S,4R)-2-Hydroxy-4-{(5-[(4-{[5-(trifluoromethyl)-2-furyl]methyl}-2-thienyl)carbonyl]pyrimidin-4-yl}amino)cyclopentyl]methyl sulfamate]	96	< 0.01
NS(=O)(=O)OC[C@H]1C[C@@H](Nc2ncncc2C(=O)c2cc(COc3cccc(Cl)c3)cs2)C[C@@H]1O [I-120, [(1R,2S,4R)-4-{[5-({4-[(3-chlorophenoxy)methyl]-2-thienyl}carbonyl)pyrimidin-4-yl]amino}-2-hydroxycyclopentyl]methyl sulfamate]	97	< 0.01
COc1cccc(Cc2csc(C(=O)c3cncnc3N[C@@H]3C[C@H](COS(N)(=O)=O)[C@@H](O)C3)c2)c1 [I-123, {(1R,2S,4R)-2-hydroxy-4-[(5-{[4-(3-methoxybenzyl)-2-thienyl]carbonyl}pyrimidin-4-yl)amino]cyclopentyl}methyl sulfamate]	96	< 0.01
N#Cc1ccccc1OCc1csc(C(=O)c2cncnc2N[C@@H]2C[C@H](COS(N)(=O)=O)[C@@H](O)C2)c1 [I-124, [(1R,2S,4R)-4-{[5-({4-[(2-cyanophenoxy)methyl]-2-thienyl}carbonyl)pyrimidin-4-yl]amino}-2-hydroxycyclopentyl]methyl sulfamate]	97	< 0.01
NS(=O)(=O)OC[C@H]1C[C@@H](Nc2ncncc2C(=O)c2cc(Cn3ccc4ccc(Cl)cc43)cs2)C[C@@H]1O [I-125, [(1R,2S,4R)-4-{[5-({4-[(6-chloro-1H-indol-1-yl)methyl]-2-thienyl}carbonyl)pyrimidin-4-yl]amino}-2-hydroxycyclopentyl]methyl sulfamate]	97	< 0.01
COc1ccc2c(c1)N(Cc1cc(C(=O)c3cncnc3N[C@@H]3C[C@H](COS(N)(=O)=O)[C@@H](O)C3)sc1C)CC2 [I-126, [(1R,2S,4R)-2-hydroxy-4-{[5-({4-[(6-methoxy-2,3-dihydro-1H-indol-1-yl)methyl]-5-methyl-2-thienyl}carbonyl)pyrimidin-4-yl]amino}cyclopentyl]methyl sulfamate]	98	< 0.01
NS(=O)(=O)OC[C@H]1C[C@@H](Nc2ncncc2C(=O)c2ccc(Cc3ccccc3)o2)C[C@@H]1O [I-127, [(1R,2S,4R)-4-{[5-(5-benzyl-2-furoyl)pyrimidin-4-yl]amino}-2-hydroxycyclopentyl]methyl sulfamate]	95	< 0.01
Cc1sc(C(=O)c2cncnc2N[C@@H]2C[C@H](COS(N)(=O)=O)[C@@H](O)C2)cc1CN1CCc2ccc(C#N)cc21 [I-128, [(1R,2S,4R)-4-{[5-({4-[(6-cyano-2,3-dihydro-1H-indol-1-yl)methyl]-5-methyl-2-thienyl}carbonyl)pyrimidin-4-yl]amino}-2-hydroxycyclopentyl]methyl sulfamate]	95	< 0.01
NS(=O)(=O)OC[C@H]1C[C@@H](Nc2ncncc2C(=O)c2cc(COc3ccccc3Cl)cs2)C[C@@H]1O [I-129, [(1R,2S,4R)-4-{[5-({4-[(2-chlorophenoxy)methyl]-2-thienyl}carbonyl)pyrimidin-4-yl]amino}-2-hydroxycyclopentyl]methyl sulfamate]	95	< 0.01
NS(=O)(=O)OC[C@H]1C[C@@H](Nc2ncncc2C(=O)c2cc(Cn3cc(C(F)(F)F)cn3)cs2)C[C@@H]1O [I-130, [(1R,2S,4R)-2-hydroxy-4-({5-[(4-{[4-(trifluoromethyl)-1H-pyrazol-1-yl]methyl}-2-thienyl)carbonyl]pyrimidin-4-yl}amino)cyclopentyl]methyl sulfamate]	97	< 0.01
